Assay results as given in patent US11708348B2, “Protease inhibitors for treatment of coronavirus infections” (The Scripps Research Institute, priority 2021, dated 2023).
Where two headings read alike, the source gives them in different places.

Test system: SARS-CoV-2 strain USA-WA1/2020
Experiment: microbe, parasite or virus in culture
Assay type: cell-based
Conditions: read-out: EC50, uM (Hela)
[1] = Severe acute respiratory syndrome coronavirus 2, HeLa-ACE2, 24 h, HeLa-ACE2 cells, SARS-CoV-2 infection, 24 h, class symbols
[2] = Severe acute respiratory syndrome coronavirus 2, HeLa-ACE2, 24 h, HeLa-ACE2 cells, SARS-CoV-2 infection, 24 h

Compound	EC50 [1] [µM]	EC50 [2] [µM]	other results
CC(C)C[C@H](NC(=O)c1cc2ccccc2[nH]1)C(=O)N[C@@H](C[C@@H]1CCNC1=O)C(=O)COc1c(F)c(F)cc(F)c1F [Compound 4, N-((S)-4-methyl-1-oxo-1-(((S)-3-oxo-1-((S)-2-oxopyrrolidin-3-yl)-4-(2,3,5,6-tetrafluorophenoxy)butan-2-yl)amino)pentan-2-yl)-1H-indole-2-carboxamide]	< 0.05	–	–
CC(C)C[C@@H](NC(=O)OC(C)(C)C)C(=O)N1CC2(CC2)C[C@H]1C(=O)N[C@@H](C[C@@H]1CCNC1=O)C(=O)COC(F)(F)F [Compound 643, tert-butyl ((R)-4-methyl-1-oxo-1-((S)-6-(((S)-3-oxo-1-((S)-2-oxopyrrolidin-3-yl)-4-(trifluoromethoxy)butan-2-yl)carbamoyl)-5-azaspiro[2.4]heptan-5-yl)pentan-2-yl)carbamate]	–	< 0.05	–
Cc1ccccc1NC(=O)C(=O)N1C[C@@H]2CCC[C@@H]2[C@H]1C(=O)N[C@@H](C[C@@H]1CCNC1=O)C(=O)COC(F)(F)F [Compound 513, (1S,3aR,6aS)-N-((S)-3-oxo-1-((S)-2-oxopyrrolidin-3-yl)-4-(trifluoromethoxy)butan-2-yl)-2-(2-oxo-2-(o-tolylamino)acetyl)-octahydrocyclo-penta[c]pyrrole-1-carboxamide]	–	< 0.05	–
O=C1NCC[C@H]1C[C@H](NC(=O)[C@@H]1[C@H]2CCC[C@H]2CN1C(=O)C1CC2(CC2)CO1)C(=O)COC(F)(F)F (stereo partly drawn) [Compound 295, (1S,3aR,6aS)-N-((S)-3-oxo-1-((S)-2-oxopyrrolidin-3-yl)-4-(trifluoromethoxy)butan-2-yl)-2-(5-oxaspiro[2.4]heptane-6-carbonyl)octahydro-cyclopenta[c]pyrrole-1-carboxamide]	0.05 to 0.2	–	–
CC(C)C[C@@H](C)C(=O)N1CC2(CC2)C[C@H]1C(=O)N[C@@H](C[C@@H]1CCNC1=O)C(=O)COC(F)(F)F [Compound 752, (S)-5-((R)-2,4-dimethylpentanoyl)-N-((S)-3-oxo-1-((S)-2-oxopyrrolidin-3-yl)-4-(trifluoromethoxy)butan-2-yl)-5-azaspiro[2.4]heptane-6-carboxamide]	–	< 0.05	–
CC(C)C[C@H](NC(=O)c1cn2ncccc2n1)C(=O)N[C@@H](C[C@@H]1CCNC1=O)C(=O)COC(F)(F)F [Compound 203, N-((S)-4-methyl-1-oxo-1-(((S)-3-oxo-1-((S)-2-oxopyrrolidin-3-yl)-4-(trifluoromethoxy)butan-2-yl)amino)pentan-2-yl)imidazo[1,2-b]pyridazine-2-carboxamide]	0.05 to 0.2	–	–
CC(C)(C)C[C@H](NC(=O)C(=O)Nc1cccc(C(F)(F)F)n1)C(=O)N[C@@H](C[C@@H]1CCCNC1=O)C(=O)CO [Compound 742, N1-((S)-1-(((S)-4-hydroxy-3-oxo-1-((S)-2-oxopiperidin-3-yl)butan-2-yl)amino)-4,4-dimethyl-1-oxopentan-2-yl)-N2-(6-(trifluoromethyl)pyridin-2-yl)oxalamide]	–	0.2 to 0.5	–
CCc1ccccc1NC(=O)C(=O)N[C@@H](CC(C)C)C(=O)N[C@@H](C[C@@H]1CCNC1=O)C(=O)COc1c(F)c(F)cc(F)c1F [Compound 63, N1-(2-ethylphenyl)-N2-((S)-4-methyl-1-oxo-1-(((S)-3-oxo-1-((S)-2-oxopyrrolidin-3-yl)-4-(2,3,5,6-tetrafluorophenoxy)butan-2-yl)amino)pentan-2-yl)oxalamide]	< 0.05	–	–
CC(C)C[C@H](NC(=O)c1ccc2c(c1)OC(F)(F)O2)C(=O)N[C@@H](C[C@@H]1CCNC1=O)C(=O)COC(F)(F)F [Compound 153, 2,2-difluoro-N-((S)-4-methyl-1-oxo-1-(((S)-3-oxo-1-((S)-2-oxopyrrolidin-3-yl)-4-(trifluoromethoxy)butan-2-yl)amino)pentan-2-yl)benzo[d][l,3]dioxole-5-carboxamide]	< 0.05	–	–
COc1cccc2[nH]c(C(=O)N[C@@H](CC(C)C)C(=O)N[C@@H](C[C@@H]3CCNC3=O)C(=O)COC(=O)c3c(Cl)cccc3Cl)cc12 [Compound 8, (S)-3-((S)-2-(4-methoxy-1H-indole-2-carboxamido)-4-methylpentanamido)-2-oxo-4-((S)-2-oxopyrrolidin-3-yl)butyl 2,6-dichlorobenzoate]	–	–	EC50 (HeLa-ACE2 cells, SARS-CoV-2 infection, 24 h, class symbols): 0.05 to 0.2 µM
[2H]C([2H])([2H])CCCC(=O)N1CC2(CC2)C[C@H]1C(=O)N[C@@H](C[C@@H]1CCNC1=O)C(=O)COC(F)(F)F [Compound 763, (S)-N-((S)-3-oxo-1-((S)-2-oxopyrrolidin-3-yl)-4-(trifluoromethoxy)butan-2-yl)-5-(pentanoyl-5,5,5-d3)-5-azaspiro[2.4]heptane-6-carboxamide]	–	< 0.05	–
CC(C)C[C@H](NC(=O)C(=O)Nc1ccccc1Cl)C(=O)N[C@@H](C[C@@H]1CCNC1=O)C(=O)COc1c(F)c(F)cc(F)c1F [Compound 46, N1-(2-chlorophenyl)-N2-((S)-4-methyl-1-oxo-1-(((S)-3-oxo-1-((S)-2-oxopyrrolidin-3-yl)-4-(2,3,5,6-tetrafluorophenoxy)butan-2-yl)amino)pentan-2-yl)oxalamide]	< 0.05	–	–
O=C1NCC[C@H]1C[C@H](NC(=O)[C@@H]1CC2(CC2)CN1C(=O)c1cc(C(F)F)on1)C(=O)COC(F)(F)F [Compound 572, (S)-5-(5-(difluoromethyl)-isoxazole-3-carbonyl)-N-((S)-3-oxo-1-((S)-2-oxopyrrolidin-3-yl)-4-(trifluoromethoxy)butan-2-yl)-5-azaspiro[2.4]-heptane-6-carboxamide]	–	< 0.05	–
CC(C)C[C@H](NC(=O)C(=O)NC1(C)CC1)C(=O)N[C@@H](C[C@@H]1CCCNC1=O)C(=O)COC(F)(F)F [Compound 245, N1-((S)-4-methyl-1-oxo-1-(((S)-3-oxo-1-((S)-2-oxopiperidin-3-yl)-4-(trifluoromethoxy)butan-2-yl)amino)pentan-2-yl)-N2-(1-methylcyclo-propyl)oxalamide]	< 0.05	–	–
O=C1NCC[C@H]1C[C@H](NC(=O)[C@@H]1CC2(CC2)CN1C(=O)c1ccccc1C(F)(F)F)C(=O)COC(F)(F)F [Compound 686, (S)-N-((S)-3-oxo-1-((S)-2-oxopyrrolidin-3-yl)-4-(trifluoromethoxy)butan-2-yl)-5-(2-(trifluoromethyl)benzoyl)-5-azaspiro[2.4]heptane-6-carboxamide]	–	< 0.05	–
CC1(C)[C@@H]2[C@@H](C(=O)N[C@H](C[C@@H]3CCNC3=O)C(=O)COC(F)(F)F)N(C(=O)[C@H](O)c3ccccc3)C[C@@H]21 [Compound 715, (1R,2S,5S)-3-((R)-2-hydroxy-2-phenylacetyl)-6,6-dimethyl-N-((R)-3-oxo-1-((S)-2-oxopyrrolidin-3-yl)-4-(trifluoromethoxy)butan-2-yl)-3-azabicyclo[3.1.0]hexane-2-carboxamide]	–	0.05 to 0.2	–
CC(C)C[C@H](NC(=O)C(=O)Nc1ccccc1F)C(=O)N[C@@H](C[C@@H]1CCNC1=O)C(=O)COP(=O)(c1ccccc1)c1ccccc1 [Compound 125, (S)-3-((S)-2-(2-((2-fluorophenyl)amino)-2-oxoacetamido)-4-methylpentanamido)-2-oxo-4-((S)-2-oxopyrrolidin-3-yl)butyl diphenylphosphinate]	–	–	EC50 (Severe acute respiratory syndrome coronavirus 2, HeLa-ACE2, 24 h): < 0.05 µM
CC1(C)[C@@H]2[C@@H](C(=O)N[C@@H](C[C@@H]3CCNC3=O)C(=O)COC(F)(F)F)N(C(=O)c3cc(C(F)(F)F)on3)C[C@@H]21 [Compound 283, (1R,2S,5S)-6,6-dimethyl-N-((S)-3-oxo-1-((S)-2-oxopyrrolidin-3-yl)-4-(trifluoromethoxy)butan-2-yl)-3-(5-(trifluoromethyl)-isoxazole-3-carbonyl)-3-azabicyclo[3.1.0]-hexane-2-carboxamide]	< 0.05	–	–
CC(C)C[C@@H](O)C(=O)N[C@@H](Cc1cccc(F)c1)C(=O)N[C@@H](C[C@@H]1CCNC1=O)C(=O)COC(F)(F)F [Compound 671, (R)-N-((S)-3-(3-fluorophenyl)-1-oxo-1-(((S)-3-oxo-1-((S)-2-oxopyrrolidin-3-yl)-4-(trifluoromethoxy)butan-2-yl)amino)propan-2-yl)-2-hydroxy-4-methylpentanamide]	–	< 0.05	–
CC1(C)[C@@H]2[C@@H](C(=O)N[C@@H](C[C@@H]3CCNC3=O)C(=O)COC(F)(F)F)N(C(=O)c3cc(F)cc(F)c3O)C[C@@H]21 [Compound 594, (1R,2S,5S)-3-(3,5-difluoro-2-hydroxybenzoyl)-6,6-dimethyl-N-((S)-3-oxo-1-((S)-2-oxopyrrolidin-3-yl)-4-(trifluoromethoxy)butan-2-yl)-3-azabicyclo-[3.1.0]hexane-2-carboxamide]	–	0.05 to 0.2	–
O=C1NCC[C@H]1C[C@@H](NC(=O)[C@@H]1[C@H]2CCC[C@H]2CN1C(=O)c1cc2cc(F)ccc2[nH]1)C(=O)COC(F)(F)F [Compound 604, (1S,3aR,6aS)-2-(5-fluoro-1H-indole-2-carbonyl)-N-((R)-3-oxo-1-((S)-2-oxopyrrolidin-3-yl)-4-(trifluoromethoxy)butan-2-yl)octahydrocyclopenta[c]pyrrole-1-carboxamide]	–	< 0.05	–
CC(C)C[C@H](NC(=O)C(=O)NC1(CF)CC1)C(=O)N[C@@H](C[C@@H]1CCNC1=O)C(=O)COC(F)(F)F [Compound 254, Nl-(l-(fluoromethyl)-cyclopropyl)-N2-((S)-4-methyl-1-oxo-1-(((S)-3-oxo-1-((S)-2-oxopyrrolidin-3-yl)-4-(trifluoromethoxy)butan-2-yl)amino)pentan-2-yl)oxalamide]	< 0.05	–	–
CC(C)C[C@H](NC(=O)c1cc2ncccc2[nH]1)C(=O)N[C@@H](C[C@@H]1CCNC1=O)C(=O)COC(F)(F)F [Compound 248, N-((S)-4-methyl-1-oxo-1-(((S)-3-oxo-1-((S)-2-oxopyrrolidin-3-yl)-4-(trifluoromethoxy)butan-2-yl)amino)pentan-2-yl)-1H-pyrrolo[3,2-b]pyridine-2-carboxamide]	0.2 to 0.5	–	–
